17 compounds from patent US20210228562A1, “IRAK DEGRADERS AND USES THEREOF” (Kymera Therapeutics, Inc., priority 2019, published 2021) can be followed below.

Where only a bound is given, the exact number is not on record here.

What all share (assay type): cell-based
One assay addresses T1, IRAK4 (Homo sapiens, UniProt Q9NWZ3).
T1 construct: endogenous in cells; host or cells: OCI-LY10
T1 sequence (Q9NWZ3 1-460): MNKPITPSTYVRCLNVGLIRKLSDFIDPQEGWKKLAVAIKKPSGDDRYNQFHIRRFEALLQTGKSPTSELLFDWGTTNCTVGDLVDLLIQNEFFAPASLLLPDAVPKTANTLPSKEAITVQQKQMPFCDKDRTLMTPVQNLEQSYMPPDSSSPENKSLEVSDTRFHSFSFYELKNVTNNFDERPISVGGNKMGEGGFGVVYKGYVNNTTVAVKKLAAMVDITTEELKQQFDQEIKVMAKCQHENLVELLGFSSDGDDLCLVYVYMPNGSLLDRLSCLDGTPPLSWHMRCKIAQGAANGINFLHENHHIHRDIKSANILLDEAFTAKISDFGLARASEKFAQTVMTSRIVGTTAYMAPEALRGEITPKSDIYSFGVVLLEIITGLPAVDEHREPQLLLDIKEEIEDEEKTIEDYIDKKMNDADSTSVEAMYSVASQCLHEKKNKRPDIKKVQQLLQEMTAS
Kind of assay: IRAK4 MSD Degradation in OCI-LY10. To be noted: OCI-LY10 cells, 24 hrs incubation; read-out: IRAK4 degradation in OCI-LY10 at 24 hrs: DC50. As to the method:
Degradation of IRAK4 in OCI-LY10 was quantitatively measured using Meso Scale Discovery technology. OCI-LY10 cells were seeded in 96-well plates (Corning 3799) with a density of 300,000 cells per well in 100 μL fresh media. Compounds were then added to the assay plates with a final top concentration of 1 to 10 μM in a 1:3 dilution series with total of 8 doses. The assay plates were then incubated for 4 to 24 hours at 37° C. under 5% CO2. The assay plates were then centrifuged for 5 minutes and the cell pellets were treated with 100 μL/well RIPA lysis buffer (Boston BioProducts BP-115D) with proteinase inhibitors. To prepare MSD assay plates (Meso Scale Discovery Catalog number L15XA-3), the plates were coated with 2 μg/mL capture antibody (mouse Anti-IRAK4 antibody [2H9], ab119942) in PBS, at 40 μL/well. The plates were then incubated overnight at 4° C., washed 3 times with 150 μL/well TBST buffer (Cell Signaling Technology, Catalog number 9997S) and blocked with 150 μL/well blocking buffer (Meso Scale Discovery Catalog number R93BA-4). Cell lysates were then added to MSD assay plates and the plates were incubated at room temperature for 1 hour. The plates were then washed 3 times with 150 μL/well TBST buffer and 25 μL/well primary detection antibody (rabbit Anti-IRAK4 antibody [Y279], from Abcam. Catalog number ab32511, 1 μg/mL). The assay plates were then incubated at room temperature for 1 hour, washed 3 times with 150 μL/well TBST buffer and 25 μL/well secondary detection antibody, SULFO-TAG anti-rabbit antibody were added (anti rabbit antibody from Meso Scale Discovery, Catalog number R32AB-1, 1 μg/mL). The assay plates were then incubated at room temperature for 1 hour, washed 3 times with 150 μL/well TBST buffer, and 150 μL/well MSD reading buffer (Meso Scale Discovery catalog number R92TC-2) was added. The plates were then analyzed by a MSD reader (Meso Scale Discovery, Model Quick Plex SQ 120). The data was then analyzed by software Prism 7.0 from GraphPad and the dose-depended IRAK4 degradation were fit using a three-parameter logistic equation to calculate DC50.

The subject of a further assay is OCI-LY10 cells. Kind of assay: CTG Cell Viability Assay - OCI-LY10. To be noted: Homo sapiens, 96 h, CellTiter-Glo, 4 days incubation. As for the experimental part:
Compound-mediated viability effect on OCI-LY10 or SUDHL-2 was quantitatively determined using the CellTiter-Glo® Luminescent Cell Viability Assay kit from Promega (Catalog number G7570) following manufacturer's recommended procedures. Briefly, OCI-LY10 or SUDHL-2 cells were seeded into 384 well plates (Grenier Bio-One, Catalog number 781080) with a density of 10,000 cells per well. Compounds were then added to the assay plate with final top concentration of 10 μM and 1:3 dilution series with total of 9 doses. The final DMSO concentration was normalized to 0.2%. The assay plates were incubated at 37° C. for 4 days under 5% CO2. Then the assay plate was equilibrated at room temperature for 10 minutes. To determine cell viability, 30 μL CellTiter Glo reagent was added to each well and the assay plate was centrifuged at 1000 rpm for 30 second, incubated at room temperature for 10 min, and analyzed by detecting the luminescence using a multimode plate reader (EnVision 2105, PerkinElmer). The data was then analyzed by software Prism 7.0 from GraphPad and the dose response curves were fit using a three-parameter logistic equation to calculate IC50.
(In general: In ATP-based viability assays light output follows the ATP content of the culture.)

For assay [1], the target named is T2, Ikaros (protein product of gene IKZF1) (Homo sapiens, UniProt Q13422+Q96SW2).
T2 construct: endogenous in cells; host or cells: OCI-LY10
Kind of assay: Quantification of Ikaros degradation in OCI-LY10 cells (quantitative immunoblotting). To be noted: 6 h treatment. As to the method:
(§1) Degradation of Ikaros (protein product of gene IKZF1) and Aiolos (protein product of gene IKZF3) were determined by quantitative immunoblotting as follows. OCI-LY10 cells, 2×10^6 cells/well, were treated with listed concentrations of IRAK4 degraders or control compounds in 6 well plates for 6 h. Cells were collected, washed with cold PBS, lysed in RIPA buffer (Boston BioProducts BP-115D) with protease/phosphatase inhibitor cocktail (Roche 05892791001/Roche 04906837001) and centrifuged at 13000 RPM for 20 min to precipitate insoluble material. The supernatant fraction was diluted in SDS-PAGE loading buffer (Beyotime Bio P0015) and 20 μL of each sample was resolved on 4-12% Bis-Tris SDS-PAGE gels (Novex, WG1402BOX). Resolved samples were transferred to nitrocellulose membranes by wet electro-transfer method at 250 mV for 1.5 h. The membrane was blocked with LICOR blocking buffer (LI-COR, 927-50000) for 1 hour, washed three times with TBST (CST #99975) for 5 minutes each and incubated with primary antibody prepared in block buffer with 0.1% Tween-20 (Solarbio, P8220) at 4° C. overnight. Ikaros antibody was rabbit monoclonal D6N9Y (CST #14859), at 1:1000 dilution. Aiolos antibody was rabbit monoclonal D1C1E (CST #15103), at 1:1000 dilution. Signal was normalized to mouse anti-beta-Actin monoclonal 8H10D10 (CST #3700) used at 1:10,000 dilution. After incubation in primary antibodies, membranes were washed three times with TBST, 5 minutes each, incubated with fluorescently labeled secondary antibodies anti-rabbit IgG (Licor, 926-32211) at 1:5000 dilution; anti-mouse IgG (LI-COR, 926-68070) at 1:5000 dilution, for 1 hour at RT. After incubation in secondary, membranes were washed three times with TBST, 5 minutes each and read on LICOR Odyssey imager. Data was reported as signal for Ikaros or Aiolos relative to signal for actin, and normalized to DMSO-treated control.

In assay [2] the target is T3, Aiolos (protein product of gene IKZF3) (Homo sapiens, UniProt Q96SW2+Q9UKT9).
T3 construct: endogenous in cells; host or cells: OCI-LY10
Kind of assay: Quantification of Aiolos degradation in OCI-LY10 cells (quantitative immunoblotting). To be noted: 6 h treatment. As to the method:
as §1
A general note: Immunoblotting shows a protein as a band on a membrane.

T3 sequence (Q9UKT9 whole entry): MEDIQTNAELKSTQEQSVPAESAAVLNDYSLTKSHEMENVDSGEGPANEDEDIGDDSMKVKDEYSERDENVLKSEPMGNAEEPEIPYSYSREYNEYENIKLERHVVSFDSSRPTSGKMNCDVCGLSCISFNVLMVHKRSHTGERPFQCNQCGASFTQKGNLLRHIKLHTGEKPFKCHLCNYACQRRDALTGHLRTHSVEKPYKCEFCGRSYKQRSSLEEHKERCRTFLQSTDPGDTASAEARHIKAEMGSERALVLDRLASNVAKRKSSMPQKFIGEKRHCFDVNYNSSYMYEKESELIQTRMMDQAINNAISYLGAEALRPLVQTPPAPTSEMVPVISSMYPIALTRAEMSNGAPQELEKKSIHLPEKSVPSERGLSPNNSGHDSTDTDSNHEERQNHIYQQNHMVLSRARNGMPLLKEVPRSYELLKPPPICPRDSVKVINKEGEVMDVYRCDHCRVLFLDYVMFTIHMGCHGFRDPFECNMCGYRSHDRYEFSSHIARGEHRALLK
T3 sequence (Q96SW2 whole entry): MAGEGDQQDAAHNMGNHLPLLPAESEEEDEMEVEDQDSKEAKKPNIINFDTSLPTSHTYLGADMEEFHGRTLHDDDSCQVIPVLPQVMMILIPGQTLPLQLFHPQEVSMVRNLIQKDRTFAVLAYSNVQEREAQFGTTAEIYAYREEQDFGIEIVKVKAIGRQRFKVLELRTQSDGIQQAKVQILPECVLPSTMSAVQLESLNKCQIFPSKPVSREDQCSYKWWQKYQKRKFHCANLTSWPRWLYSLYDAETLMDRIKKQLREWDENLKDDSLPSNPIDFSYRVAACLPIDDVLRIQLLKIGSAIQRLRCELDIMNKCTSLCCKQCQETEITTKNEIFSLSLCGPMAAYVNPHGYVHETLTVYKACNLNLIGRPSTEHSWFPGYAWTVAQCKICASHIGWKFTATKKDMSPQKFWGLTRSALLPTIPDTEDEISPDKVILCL
T3 sequence (Q16531 whole entry partner): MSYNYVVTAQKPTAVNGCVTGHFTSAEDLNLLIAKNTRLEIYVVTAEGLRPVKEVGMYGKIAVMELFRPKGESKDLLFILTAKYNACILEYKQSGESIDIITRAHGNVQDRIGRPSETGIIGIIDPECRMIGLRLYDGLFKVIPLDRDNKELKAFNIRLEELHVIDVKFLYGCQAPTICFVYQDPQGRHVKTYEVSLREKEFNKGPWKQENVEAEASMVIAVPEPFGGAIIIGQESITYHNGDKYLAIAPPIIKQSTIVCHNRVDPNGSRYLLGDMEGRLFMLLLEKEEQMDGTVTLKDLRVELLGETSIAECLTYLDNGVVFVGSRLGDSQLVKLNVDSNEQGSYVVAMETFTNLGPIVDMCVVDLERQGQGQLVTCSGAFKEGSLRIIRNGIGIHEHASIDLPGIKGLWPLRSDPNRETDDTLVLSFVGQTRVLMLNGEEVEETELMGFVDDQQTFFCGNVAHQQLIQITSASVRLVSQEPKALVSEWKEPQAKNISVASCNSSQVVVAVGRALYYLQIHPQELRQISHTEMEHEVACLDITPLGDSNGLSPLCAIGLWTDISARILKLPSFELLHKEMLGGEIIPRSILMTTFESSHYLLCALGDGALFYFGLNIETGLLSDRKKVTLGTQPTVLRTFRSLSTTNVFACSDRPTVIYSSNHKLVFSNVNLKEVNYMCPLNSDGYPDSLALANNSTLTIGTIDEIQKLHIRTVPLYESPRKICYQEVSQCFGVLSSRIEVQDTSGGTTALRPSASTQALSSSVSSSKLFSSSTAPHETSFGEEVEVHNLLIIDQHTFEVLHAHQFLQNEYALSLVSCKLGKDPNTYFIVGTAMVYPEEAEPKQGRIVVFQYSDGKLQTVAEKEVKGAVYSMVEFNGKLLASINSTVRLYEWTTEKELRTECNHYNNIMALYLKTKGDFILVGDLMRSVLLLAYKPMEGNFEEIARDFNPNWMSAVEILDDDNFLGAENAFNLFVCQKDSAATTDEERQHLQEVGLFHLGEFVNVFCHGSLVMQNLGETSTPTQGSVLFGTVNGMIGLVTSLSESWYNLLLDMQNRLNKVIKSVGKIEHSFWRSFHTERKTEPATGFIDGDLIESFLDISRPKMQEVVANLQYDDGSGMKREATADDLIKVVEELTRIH
T2 sequence (Q13422 whole entry): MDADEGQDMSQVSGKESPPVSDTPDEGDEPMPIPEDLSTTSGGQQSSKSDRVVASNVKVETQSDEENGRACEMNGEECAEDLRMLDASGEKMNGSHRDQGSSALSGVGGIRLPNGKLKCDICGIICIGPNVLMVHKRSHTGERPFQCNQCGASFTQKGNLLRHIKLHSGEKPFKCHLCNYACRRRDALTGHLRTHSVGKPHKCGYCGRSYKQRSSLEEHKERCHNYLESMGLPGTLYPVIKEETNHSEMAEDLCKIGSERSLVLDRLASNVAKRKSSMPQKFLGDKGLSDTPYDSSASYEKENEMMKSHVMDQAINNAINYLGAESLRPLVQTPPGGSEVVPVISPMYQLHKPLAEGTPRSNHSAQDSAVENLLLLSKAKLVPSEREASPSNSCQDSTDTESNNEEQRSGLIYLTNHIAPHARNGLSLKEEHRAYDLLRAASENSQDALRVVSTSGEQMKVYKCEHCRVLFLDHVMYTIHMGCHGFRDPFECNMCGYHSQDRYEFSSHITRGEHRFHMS
T2 sequence (Q96SW2 whole entry): as the sequence (Q96SW2 whole entry) above
T2 sequence (Q16531 whole entry partner): as the sequence (Q16531 whole entry partner) above

For the compound `CN(C[C@H]1CC[C@H](c2nc3cc(C(C)(C)O)c(NC(=O)c4cccc(C(F)(F)F)n4)cc3s2)CC1)[C@H]1CC[C@@H](CNc2cccc3c2C(=O)N(C2CCC(=O)NC2=O)C3=O)CC1` (stereo partly drawn) [I-48], the DC50 – broadly, the concentration at which degradation of the target reaches its halfway point – at IRAK4 is above 1000 nM; in assay [1] it was below 50 nM; in assay [2], below 50 nM. In addition, the IC50 (in general, the midpoint of a concentration-inhibition curve) with OCI-LY10 cells lay within 50 to 100 nM.
Consider `CC(C)(O)c1cc2nc([C@H]3CC[C@H](CN4CC5(CC(CCNc6cccc7c6C(=O)N(C6CCC(=O)NC6=O)C7=O)C5)C4)CC3)sc2cc1NC(=O)c1ccnc(C(F)(F)F)n1` (stereo partly drawn) [I-54], for which the DC50 on IRAK4 was 100 to 500 nM; in assay [1] it was below 50 nM; in assay [2], below 50 nM. Besides, in the assay on OCI-LY10 cells, the IC50 was below 50 nM.
As for `CC(C)(O)c1cc2nc([C@H]3CC[C@H](CN4CC5(CC(CCNc6cccc7c6C(=O)N(C6CCC(=O)NC6=O)C7=O)C5)C4)CC3)sc2cc1NC(=O)c1ccccn1` (stereo partly drawn) [I-57], the IC50 in the assay on OCI-LY10 cells is below 50 nM.
With `CC(C)(O)c1cc2nc([C@H]3CC[C@@H](CN4CC5(CC(CCNc6cccc7c6C(=O)N(C6CCC(=O)NC6=O)C7=O)C5)C4)CC3)sc2cc1NC(=O)c1cccc(C(F)(F)F)n1` (stereo partly drawn) [I-62, N-(2-((1S,4S)-4-((6-(2-((2-(2,6-dioxopiperidin-3-yl)-1,3-dioxoisoindolin-4-yl)amino)ethyl)-2-azaspiro[3.3]heptan-2-yl)methyl)cyclohexyl)-5-(2-hydroxypropan-2-yl)benzo[d]thiazol-6-yl)-6-(trifluoromethyl)picolinamide], the half-maximal degradation concentration (DC50) on IRAK4 was 50 to 100 nM; in assay [1] it was below 50 nM; in assay [2], below 50 nM.
As to `CC1(C)OC2(C)c3ccccc3CCN2c2cc3sc([C@H]4CC[C@H](CN5CC6(CC(CCNc7cccc8c7C(=O)N(C7CCC(=O)NC7=O)C8=O)C6)C5)CC4)nc3cc21` (stereo partly drawn) [I-49], the DC50 on IRAK4 is above 1000 nM; in assay [1], below 50 nM; in assay [2] it was below 50 nM. The compound also had an IC50 in the assay with OCI-LY10 cells of 50 to 100 nM.
Regarding `CC(C)(O)c1cc2nc([C@H]3CC[C@H](CN4CC5(CC(CCNc6cccc7c6C(=O)N([C@H]6CCC(=O)NC6=O)C7=O)C5)C4)CC3)sc2cc1NC(=O)c1cccc(C(F)(F)F)n1` (single isomer, unassigned) [I-66], the DC50 (at IRAK4; in assay [1]; in assay [2]) was below 50 nM in each case.
Regarding `CC(C)(O)c1cc2nc(N3CCC(CN4CCC5(CC4)CC(CNc4cccc6c4C(=O)N(C4CCC(=O)NC4=O)C6=O)C5)CC3)sc2cc1NC(=O)c1cccc(C(F)(F)F)n1` (stereo not drawn) [I-35], the DC50 is 50 to 100 nM at IRAK4, below 50 nM in assay [1] and below 50 nM in assay [2]. The IC50 in the assay on OCI-LY10 cells fell in the range of 500 to 1000 nM.
Turning to `Cc1nccc(C(=O)Nc2cc3sc([C@H]4CC[C@H](CN5CC6(CC(CCNc7cccc8c7C(=O)N(C7CCC(=O)NC7=O)C8=O)C6)C5)CC4)nc3cc2C(C)(C)O)n1` (stereo partly drawn) [I-51], the 50% degradation concentration (DC50) at IRAK4 is above 1000 nM. The concentration for half-maximal inhibition (IC50) in the assay with OCI-LY10 cells is below 50 nM.
For the compound `CC(C)(O)c1cc2nc([C@H]3CC[C@H](CN4CC5(CC(CCNc6cccc7c6C(=O)N(C6CCC(=O)NC6=O)C7=O)C5)C4)CC3)sc2cc1-n1ccc2ccccc2c1=O` (stereo partly drawn) [I-40], the DC50 is 100 to 500 nM on IRAK4, below 50 nM in assay [1] and below 50 nM in assay [2]. The compound also yielded an IC50 with OCI-LY10 cells below 50 nM.
Take `CC(C)(O)c1cc2nc([C@H]3CC[C@H](CN4CC5(CC(CCNc6cccc7c6C(=O)N([C@@H]6CCC(=O)NC6=O)C7=O)C5)C4)CC3)sc2cc1NC(=O)c1cccc(C(F)(F)F)n1` (single isomer, unassigned) [I-65]: the 50% degradation concentration (DC50) (at IRAK4; in assay [1]; in assay [2]) was below 50 nM throughout.
On to `CC(C)(O)c1cc2nc([C@H]3CC[C@H](CN4CCC(CCNc5cccc6c5C(=O)N(C5CCC(=O)NC5=O)C6=O)CC4)CC3)sc2cc1NC(=O)c1cccc(C(F)(F)F)n1` (stereo partly drawn) [I-24], for which the DC50 (on IRAK4; in assay [1]; in assay [2]) was below 50 nM throughout. In addition, the IC50 with OCI-LY10 cells is below 50 nM.
With `CN(C[C@H]1CC[C@H](c2nc3cc(C(C)(C)O)c(NC(=O)c4cccc(C(F)(F)F)n4)cc3s2)CC1)[C@H]1CC[C@H](CNc2cccc3c2C(=O)N(C2CCC(=O)NC2=O)C3=O)CC1` (stereo partly drawn) [I-41], the DC50 (at IRAK4; in assay [1]; in assay [2]) was below 50 nM in each case. In the assay with OCI-LY10 cells, this compound showed an IC50 below 50 nM.
As to `CC(C)(O)c1cc2nc([C@H]3CC[C@H](CN4CCC5(CC4)CC4(CC(CCNc6cccc7c6C(=O)N(C6CCC(=O)NC6=O)C7=O)C4)C5)CC3)sc2cc1NC(=O)c1cccc(C(F)(F)F)n1` (stereo partly drawn) [I-59], the DC50 (at IRAK4; in assay [1]; in assay [2]) was 100 to 500 nM each time. Further, the IC50 with OCI-LY10 cells was 100 to 500 nM.
Consider `CC(C)(O)c1cc2nc([C@H]3CC[C@H](CN4CC5(CC(CCNc6cccc7c6C(=O)N(C6CCC(=O)NC6=O)C7=O)C5)C4)CC3)sc2cc1N1CCc2ccccc2C1=O` (stereo partly drawn) [I-60], for which the DC50 at IRAK4 was below 50 nM. The half-maximal inhibitory concentration (IC50) in the assay on OCI-LY10 cells is below 50 nM.
For `CC(C)(O)c1cc2nc([C@H]3CC[C@@H](N4CC5(CC(CCNc6cccc7c6C(=O)N(C6CCC(=O)NC6=O)C7=O)C5)C4)CC3)sc2cc1NC(=O)c1cccc(C(F)(F)F)n1` (single isomer, unassigned) [I-64], the IC50 with OCI-LY10 cells is below 50 nM.
For `CC(C)(O)c1cc2nc([C@H]3CC[C@H](CN4CC5(CC(CCNc6cccc7c6C(=O)N(C6CCC(=O)NC6=O)C7=O)C5)C4)CC3)sc2cc1NC(=O)c1cccc(C(C)(F)F)n1` (stereo partly drawn) [I-56], the half-maximal degradation concentration (DC50) (at IRAK4; in assay [1]; in assay [2]) was below 50 nM throughout.
As to `CC(C)(O)c1cc2nc([C@H]3CC[C@H](CN4CC5(CC(CCNc6cccc7c6C(=O)N(C6CCC(=O)NC6=O)C7=O)C5)C4)CC3)sc2cc1NC(=O)c1cnccn1` (stereo partly drawn) [I-58], the IC50 in the assay on OCI-LY10 cells is below 50 nM.
